Experimental data taken from PubChem BioAssay AID330 (DTP/NCI, 2004).
Where “and” joins values, the source holds several entries; their conditions need not be identical. Equal entries are not always repeated. Toxic doses and inconclusive results are not listed. Rule for the calls: active = survival T/C of 150% or more; inactive = T/C below 125% in these data. Square brackets hold non-standard residues; d marks the D form. Peptide text beside a SMILES is read from it. ξ: configuration not given here. ξN = NC(=O)CC(N)C(=O)O

System: P388 leukemia ip, CD2F1 mice, survival T/C
Assay: NCI In Vivo Anticancer Drug Screen. Data for tumor model P388 Leukemia (intraperitoneal) in CD2F1 (CDF1) mice
Conditions: endpoint: median survival time, higher = longer survival
How it was run: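 Mice carrying the transplanted tumor received test compound or vehicle. Survival was recorded in each group, and the value is the treated-group measurement divided by that of the vehicle-treated control group.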

[1] = dose: 12.5 mg/kg/injection, schedule: Q01DX009 (ip), vehicle: saline with Tween-80
[2] = dose: 25.0 mg/kg/injection, schedule: Q01DX009 (ip), vehicle: saline with Tween-80
[3] = dose: 50.0 mg/kg/injection, schedule: Q01DX009 (ip), vehicle: saline with Tween-80
[4] = dose: 60.0 mg/kg/injection, schedule: Q01DX005 (ip), vehicle: saline with Tween-80
[5] = dose: 12.5 mg/kg/injection, schedule: Q01DX009 (ip), vehicle: Klucel (hydroxypropylcellulose) (HPC)
[6] = dose: 25.0 mg/kg/injection, schedule: Q01DX009 (ip), vehicle: Klucel (hydroxypropylcellulose) (HPC)
[7] = dose: 50.0 mg/kg/injection, schedule: Q01DX005 (ip), vehicle: Klucel (hydroxypropylcellulose) (HPC)
[8] = dose: 100.0 mg/kg/injection, schedule: Q01DX009 (ip), vehicle: saline with Tween-80
[9] = dose: 200.0 mg/kg/injection, schedule: Q01DX009 (ip), vehicle: saline with Tween-80
[10] = dose: 120.0 mg/kg/injection, schedule: Q01DX005 (ip), vehicle: saline with Tween-80
[11] = dose: 25.0 mg/kg/injection, schedule: Q01DX009 (ip), vehicle: saline
[12] = dose: 50.0 mg/kg/injection, schedule: Q01DX009 (ip), vehicle: saline
[13] = dose: 100.0 mg/kg/injection, schedule: Q01DX009 (ip), vehicle: saline
[14] = dose: 200.0 mg/kg/injection, schedule: Q01DX009 (ip), vehicle: saline

Measured: T/C

CN1CCN(CC2CCOc3cc(Cl)ccc3C2=O)CC1 (configuration not stated)
inactive: dose: 100.0 mg/kg/injection, schedule: Q04DX003 (ip), vehicle: saline 105 % of control | dose: 200.0 mg/kg/injection, schedule: Q04DX003 (ip), vehicle: saline 108 % of control

CCCCCCCCCCSc1ncnc2nc[nH]c12
inactive: [1] 100 % of control | [2] 90 % of control | [3] 90 % of control

O=C(N/N=C/c1cc(Br)ccc1[O-])c1cccnc1.O=C(N/N=C/c1cc(Br)ccc1[O-])c1cccnc1.[Zn+2]
inactive: dose: 100.0 mg/kg/injection, schedule: Q01DX001 (ip), vehicle: Klucel (hydroxypropylcellulose) (HPC) 98 % of control | dose: 200.0 mg/kg/injection, schedule: Q01DX001 (ip), vehicle: Klucel (hydroxypropylcellulose) (HPC) 93 % of control | dose: 400.0 mg/kg/injection, schedule: Q01DX001 (ip), vehicle: Klucel (hydroxypropylcellulose) (HPC) 93 % of control

COc1ccc(NC(=S)C#N)cc1
inactive: dose: 15.0 mg/kg/injection, schedule: Q01DX005 (ip), vehicle: saline with Tween-80 99 % of control | dose: 30.0 mg/kg/injection, schedule: Q01DX005 (ip), vehicle: saline with Tween-80 99 % of control | [4] 99 % of control and 117 % of control

S=C(Nc1ccccc1)SCc1ccc2c(c1)OCO2
inactive: dose: 100.0 mg/kg/injection, schedule: Q01DX001 (ip), vehicle: saline 98 % of control | dose: 200.0 mg/kg/injection, schedule: Q01DX001 (ip), vehicle: saline 101 % of control | dose: 400.0 mg/kg/injection, schedule: Q01DX001 (ip), vehicle: saline 101 % of control

Nc1cccc2ccccc12
inactive: dose: 100.0 mg/kg/injection, schedule: Q04DX003 (ip), vehicle: saline with Tween-80 94 % of control

COC1CC(=O)C2OC(c3ccccc3)OCC2O1 (configuration not stated)
inactive: dose: 1.56 mg/kg/injection, schedule: Q01DX009 (ip), vehicle: other 88 % of control | dose: 3.13 mg/kg/injection, schedule: Q01DX009 (ip), vehicle: other 94 % of control | dose: 6.25 mg/kg/injection, schedule: Q01DX009 (ip), vehicle: other 106 % of control | dose: 12.5 mg/kg/injection, schedule: Q01DX009 (ip), vehicle: other 96 % of control | dose: 25.0 mg/kg/injection, schedule: Q01DX009 (ip), vehicle: other 100 % of control and 97 % of control | dose: 50.0 mg/kg/injection, schedule: Q01DX009 (ip), vehicle: other 99 % of control | dose: 100.0 mg/kg/injection, schedule: Q01DX009 (ip), vehicle: other 92 % of control | dose: 200.0 mg/kg/injection, schedule: Q01DX009 (ip), vehicle: other 87 % of control | dose: 400.0 mg/kg/injection, schedule: Q01DX009 (ip), vehicle: other 98 % of control

CCOC(=O)NC(C#N)=C(Cl)Cl
inactive: dose: 6.25 mg/kg/injection, schedule: Q01DX009 (ip), vehicle: Klucel (hydroxypropylcellulose) (HPC) 100 % of control | [5] 100 % of control | [6] 101 % of control

CN(CCCCC1CCCN(C(=O)c2ccccc2)C1)C(=O)c1ccccc1 (configuration not stated)
inactive: dose: 12.5 mg/kg/injection, schedule: Q01DX005 (ip), vehicle: Klucel (hydroxypropylcellulose) (HPC) 96 % of control | dose: 25.0 mg/kg/injection, schedule: Q01DX005 (ip), vehicle: Klucel (hydroxypropylcellulose) (HPC) 94 % of control | [7] 103 % of control and 97 % of control

CC(C)(C)N=C(CCN1CCOCC1)Nc1cccc(Cl)c1
inactive: [3] 100 % of control | [8] 96 % of control | [9] 97 % of control

CCN(CC)C(=O)c1cccc(COc2ccc(N3C(N)=NC(N)=NC3(C)C)cc2Cl)c1
inactive: dose: 50.0 mg/kg/injection, schedule: Q01DX009 (ip), vehicle: saline sonified 90 % of control | dose: 50.0 mg/kg/injection, schedule: Q04DX003 (ip), vehicle: saline sonified 109 % of control | dose: 100.0 mg/kg/injection, schedule: Q01DX009 (ip), vehicle: saline sonified 109 % of control | dose: 100.0 mg/kg/injection, schedule: Q04DX003 (ip), vehicle: saline sonified 100 % of control

Cc1nn(C(=O)c2ccccn2)c(-c2ccccc2)c1N=Nc1ccc(S(=O)(=O)Nc2ncccn2)cc1
inactive: [4] 102 % of control | [10] 100 % of control

COc1ccc(N=C=S)cc1N=C=S
inactive: dose: 6.25 mg/kg/injection, schedule: Q04DX003 (ip), vehicle: saline with Tween-80 95 % of control | dose: 12.5 mg/kg/injection, schedule: Q04DX003 (ip), vehicle: saline with Tween-80 104 % of control | dose: 25.0 mg/kg/injection, schedule: Q04DX003 (ip), vehicle: saline with Tween-80 104 % of control

COC(=O)c1ncn(Cc2ccccc2)c1O (tested in a mixture with another compound)
inactive: dose: 60.0 mg/kg/injection, schedule: Q01DX005 (ip), vehicle: water 93 % of control | dose: 120.0 mg/kg/injection, schedule: Q01DX005 (ip), vehicle: water 107 % of control | dose: 240.0 mg/kg/injection, schedule: Q01DX005 (ip), vehicle: water 110 % of control

FC(F)(F)c1cccc(N(c2nc(Cl)nc(Cl)n2)c2nc(Cl)nc(Cl)n2)c1
inactive: dose: 50.0 mg/kg/injection, schedule: Q01DX009 (ip), vehicle: suspension in saline 94 % of control | dose: 100.0 mg/kg/injection, schedule: Q01DX009 (ip), vehicle: suspension in saline 92 % of control | dose: 200.0 mg/kg/injection, schedule: Q01DX009 (ip), vehicle: suspension in saline 91 % of control

O=C(O)CC(=O)c1ccccc1
inactive: [2] 102 % of control | [3] 105 % of control | [9] 89 % of control

COc1ccc(-c2cc3cc(OC)c(OC)cc3cn2)cc1OC
inactive: dose: 6.25 mg/kg/injection, schedule: Q01DX009 (ip), vehicle: suspension in saline 99 % of control | dose: 12.5 mg/kg/injection, schedule: Q01DX009 (ip), vehicle: suspension in saline 98 % of control | [11] 98 % of control | dose: 25.0 mg/kg/injection, schedule: Q01DX009 (ip), vehicle: suspension in saline 97 % of control | [12] 90 % of control

O=S(=O)(O)c1ccc(-c2nnc(-c3ccccn3)nc2-c2ccc(S(=O)(=O)O)o2)o1
inactive: dose: 60.0 mg/kg/injection, schedule: Q01DX005 (ip), vehicle: saline 102 % of control | dose: 120.0 mg/kg/injection, schedule: Q01DX005 (ip), vehicle: saline 97 % of control | dose: 240.0 mg/kg/injection, schedule: Q01DX005 (ip), vehicle: saline 102 % of control

CCN(CC)CCNC1CC(C)CC(C)(C)C1 (configuration not stated)
inactive: dose: 50.0 mg/kg/injection, schedule: Q01DX005 (ip), vehicle: saline with Tween-80 103 % of control | dose: 100.0 mg/kg/injection, schedule: Q01DX005 (ip), vehicle: saline with Tween-80 101 % of control

NCC(=O)NC(CC(N)=O)C(=O)O (configuration not stated) (H-Gly-[ξN]-OH)
inactive: [12] 119 % of control | [13] 109 % of control | [14] 114 % of control

CC1CCC(=O)N1C (configuration not stated)
inactive: [13] 105 % of control | [14] 100 % of control | dose: 400.0 mg/kg/injection, schedule: Q01DX009 (ip), vehicle: saline 113 % of control

CC1/C(=N/O)C(=O)c2ccccc21 (configuration not stated)
inactive: [1] 100 % of control | [2] 95 % of control | [3] 100 % of control

Cc1cc(N=[N+]=[N-])c2ccc(Cl)cc2n1
inactive: [4] 94 % of control | [10] 100 % of control

O=C(Nc1ccc(Cl)c(C(F)(F)F)c1)Nc1c(Oc2ccc(Cl)c(Cl)c2)ccc(Cl)c1S(=O)(=O)O
inactive: [11] 118 % of control | [12] 118 % of control | [13] 118 % of control

NC(=S)NC(=O)c1cccs1
inactive: [3] 95 % of control | [8] 94 % of control | [9] 93 % of control

O=c1[nH]c(=S)[nH]cc1Oc1ccc(I)cc1
inactive: [5] 106 % of control | [6] 107 % of control | dose: 50.0 mg/kg/injection, schedule: Q01DX009 (ip), vehicle: Klucel (hydroxypropylcellulose) (HPC) 104 % of control

CCN(CC)C1(C(F)C(F)(F)F)OCC2(CO1)COC(C(F)C(F)(F)F)(N(CC)CC)OC2 (configuration not stated)
inactive: [4] 98 % of control | [10] 104 % of control | dose: 240.0 mg/kg/injection, schedule: Q01DX005 (ip), vehicle: saline with Tween-80 91 % of control

FC(F)(F)C1(C(F)(F)F)OP2(c3ccccc3)(OC(C(F)(F)F)(C(F)(F)F)c3ccccc32)c2ccccc21
inactive: [7] 98 % of control | dose: 100.0 mg/kg/injection, schedule: Q01DX005 (ip), vehicle: Klucel (hydroxypropylcellulose) (HPC) 91 % of control | dose: 200.0 mg/kg/injection, schedule: Q01DX005 (ip), vehicle: Klucel (hydroxypropylcellulose) (HPC) 100 % of control
